Measured values: article PMC7395068, “The evolution of strategies to minimise the risk of human drug-induced liver injury (DILI) in drug discovery and development” (Archives of Toxicology, 2020)
Read-outs that look alike come from different tables or passages of the source.

Experiments:
rBsep = conditions: In vitro Assay; ref Dawson 2012; cited from earlier work
Upcyte human hepatocytes = conditions: In vitro Assay; ref Tolosa 2019; cited from earlier work
[1] = cited from earlier work
[2] = cited from earlier work; remark: listed apart in the source
RMPCC's = conditions: In vitro Assay; ref Khetani 2012; cited from earlier work
[3] = ref Chen 2011; cited from earlier work
hu-MPCC = conditions: In vitro Assay; ref Khetani 2012; cited from earlier work
HepG2 cells [4] = conditions: In vitro Assay; ref Tolosa 2012; cited from earlier work
HepG2 cells [5] = conditions: cited from earlier work; for Structural based (HCI): In vitro Assay, ref O'Brien 2006
human hepatocytes = conditions: In vitro Assay; ref Xu 2008; cited from earlier work
hLiMTs [6] = conditions: cited from earlier work; for hLiMTs ATP <100uM: In vitro Assay, ref Proctor 2017
HepG2 cells [7] = conditions: cited from earlier work; for Cluser analysis / Structural based (HCI): In vitro Assay, ref Persson 2013
PHH = conditions: cited from earlier work; for PHH ATP <100uM: In vitro Assay, ref Proctor 2017
[8] = test system: HepG2 cells, primary human hepatocytes; conditions: In vitro Assay; ref Garside 2014; cited from earlier work
[9] = test system: isolated mouse liver mitochondria; conditions: In vitro Assay; ref Porceddu 2012; cited from earlier work
PHH spheroids = conditions: cited from earlier work
[10] = Plasma free fraction (fu) and unbound Cmax (Cmax,u); assay type: in vitro ADME, human; conditions: unbound plasma Cmax
Description: The prediction of DILI severity was evaluated further using the 3D combined HCI assays using plasma-free fraction. The majority of fu values were obtained from literature, when unavailable in-house prediction was utilised. Unbound plasma Cmax concentrations (Cmax,u) were derived by multiplying total plasma Cmax with the corresponding free fraction (fu) for each compound.

[11] = plasma free fraction; cited from earlier work
[12] = read-out: Human plasma Cmax; total plasma Cmax.tot, median of 9 literature references; cited from earlier work
hLiMTs [13] = test system: hLiMTs
[14] = test system: primary human hepatocytes, NIH3T3 fibroblasts, BSEP, CYP3A4; conditions: cited from earlier work
HepaRG spheroids [15] = test system: HepaRG spheroids
[16] = test system: THLE-Null and THLE-3A4 cells; conditions: In vitro Assay; ref Gustafsson 2014; cited from earlier work
HepaRG spheroids [17] = test: Combined HCI (HCS) and cellular ATP 3D assay in HepaRG spheroids; conditions: HepaRG; for AC50 / minimal effective concentration: Homo sapiens
hLiMTs [18] = test: Combined HCI (HCS) and cellular ATP 3D assay in hLiMTs; conditions: for AC50 / minimal effective concentration: Homo sapiens

## C[C@@H]1C[C@H]2[C@@H]3CCC4=CC(=O)C=C[C@]4(C)[C@@]3(F)[C@@H](O)C[C@]2(C)[C@@]1(O)C(=O)CO [dexamethasone]
rBsep
  Inhibition of rBsep cutoff<1& cmax u>.2: -VE
  Inhibition of rBsep cutoff<3: +VE
Upcyte human hepatocytes
  Upcytes multi donor assay 14day data: -VE
[1]; […]
  In vivo DILI: -VE
[1]; ref Dawson 2012
  In vivo DILI: -VE
[1]; ref Garside 2014
  In vivo DILI: -VE
[1]; ref Gustafsson 2014
  In vivo DILI: -VE
[1]; ref Khetani 2012
  In vivo DILI: -VE
[1]; ref O'Brien 2006
  In vivo DILI: -VE
[1]; ref Persson 2013
  In vivo DILI: -VE
[1]; ref Porceddu 2012
  In vivo DILI: +VE
[1]; ref Proctor 2017
  In vivo DILI: -VE
[1]; ref Tolosa 2012
  In vivo DILI: -VE
[1]; ref Tolosa 2019
  In vivo DILI: -VE
[1]; ref Williams 2019
  In vivo DILI: -VE
[1]; ref Xu 2008
  In vivo DILI: -VE
[2]; ref Chen 2016
  DILI +VE (5-8), DILI -VE (-4): -VE
  DILI severity category: Ambiguous DILI-concern
RMPCC's
  RMPCC's: -VE
[3]
  DILI Score (FDA) (1-8): 3
hu-MPCC
  HMPCC's: -VE
HepG2 cells [4]
  Structural based (HCI): -VE
HepG2 cells [5]
  Structural based (HCI): -VE
Human hepatocytes
  Structural based (HCI): -VE
hLiMTs [6]
  hLiMTs ATP <100uM: -VE
HepG2 cells [7]
  Cluser analysis: -VE
  Structural based (HCI): -VE
PHH
  PHH ATP <100uM: -VE
[8]
  Cluster 1-6 +VE Assay: -VE
[9]
  in vitro data EC2<=1x Cmax: -VE
  in vitro data EC20<=2uM: -VE

## CC(=O)N1CCN(c2ccc(OCC3COC(Cn4ccnc4)(c4ccc(Cl)cc4Cl)O3)cc2)CC1 (stereo not shown) [ketoconazole, reference compound]
PHH spheroids; In vitro Assay, ref Vorrink 2018
  hLiMTs ATP <20 x Cmax: +VE (IC20 < 20 × Cmax.tot cut-off)
PHH spheroids; PHH spheroids, ATP, 14 days, IC20 < 20 × Cmax.tot, ref Vorrink et al. 2018
  DILI in vitro assay prediction, Vorrink (2018): +VE (IC20 < 20 × Cmax.tot cut-off)
[10]
  Human plasma Cmax,u: 0.565 µM
rBsep
  Inhibition of rBsep cutoff<1& cmax u>.2: +VE
  Inhibition of rBsep cutoff<3: +VE
Upcyte human hepatocytes
  Upcytes multi donor assay 14day data: +VE
[11]
  fu: 0.050
[12]
  Cmax: 11.3 µM
[1]; Chen et al. 2016 or literature alignment, ref Chen et al. 2016
  Assigned DILI category: 3
[1]; […]
  In vivo DILI: +VE
[1]; ref Albrecht 2019
  In vivo DILI: +VE
[1]; ref Aleo 2019
  In vivo DILI: +VE
[1]; ref Dawson 2012
  In vivo DILI: +VE
[1]; ref Garside 2014
  In vivo DILI: +VE
[1]; ref Gustafsson 2014
  In vivo DILI: +VE
[1]; ref O'Brien 2006
  In vivo DILI: +VE
[1]; ref Persson 2013
  In vivo DILI: +VE
[1]; ref Porceddu 2012
  In vivo DILI: +VE
[1]; ref Proctor 2017
  In vivo DILI: +VE
[1]; ref Schadt 2015
  In vivo DILI: +VE
[1]; ref Tolosa 2019
  In vivo DILI: +VE
[1]; ref Vorrink 2018
  In vivo DILI: +VE
[1]; ref Williams 2019
  In vivo DILI: +VE
[2]; LTKB DILIrank category, ref Chen et al. 2016
  DILI severity category (Chen et al. [2016]): Most
[2]; human DILI classification, LTKB DILIrank, ref Chen et al. 2016
  DILI severity category (Chen 2016): Most
[2]; human DILI severity, ref Chen et al.
  DILI severity category: Most
[2]; ref Chen 2016
  DILI +VE (5-8), DILI -VE (-4): +VE
  DILI severity category: vMost-DILI-Concern
[3]
  DILI Score (FDA) (1-8): 8
hLiMTs [13]
  DILI prediction hLiMTs (HCS-MEC): +VE (key: +VE: MEC < 25 × Cmax.tot cut-off)
[14]
  Cellular toxicity (3T3 cells): -VE
  Combined Assay: +VE
  DILI in vitro assay prediction, Schadt (2015): +VE
  GSH adduct HML: -VE
  Hepatocyte cellular toxicity: +VE
  MitoTox 3T3: -VE
  TDI CYP3A4: -VE
  hBSEP inhibition: +VE
HepG2 cells [5]
  Structural based (HCI): +VE
HepG2 cells [5]; Structural based (HCI), HepG2, ref O'Brien et al. 2006
  DILI in vitro assay prediction, O'Brien (2006): +VE (lowest HCI endpoint IC50 (or in the absence of dose–response < 100 µM) < 30 × total human plasma exposure levels (Cmax.tot))
HepaRG spheroids [15]
  DILI prediction HepaRG spheroids (HCS-MEC): +VE (key: +VE: MEC < 25 × Cmax.tot cut-off)
hLiMTs [6]
  hLiMTs ATP <100uM: +VE (IC50 threshold of 100 µM)
hLiMTs [6]; hLiMTs, ATP, IC50 threshold 100 µM, ref Proctor et al. 2017
  hLiMTs/100uM, Proctor (2017): +VE (IC50 threshold of 100 µM)
HepG2 cells [7]
  Cluser analysis: +VE
  Structural based (HCI): +VE
HepG2 cells [7]; Structural based (HCI), HepG2, ref Persson et al. 2013
  DILI in vitro assay prediction, Persson (2013): +VE
PHH; 2D PHH, ATP, IC50 threshold 100 µM, ref Proctor et al. 2017
  PHH/100uM, Proctor (2017): +VE (IC50 threshold of 100 µM)
PHH
  PHH ATP <100uM: +VE (IC50 threshold of 100 µM)
[8]
  Cluster 1-6 +VE Assay: +VE
[16]
  THLE-Null: +VE
HepaRG spheroids [17]; ATP endpoint, cut-off <25x Avg Cmax
  HepaRG <25x Avg Cmax ATP: +ve
HepaRG spheroids [17]; ATP endpoint, cut-off <100x Avg Cmaxu
  HepaRG <100x Avg Cmaxu ATP: +ve (<100x Avg Cmaxu)
HepaRG spheroids [17]; HCS endpoints, cut-off <25x Avg Cmax
  HepaRG <25x Avg Cmax HCS: +ve
HepaRG spheroids [17]; HCS endpoints, cut-off <100x Avg Cmaxu
  HepaRG <100x Avg Cmaxu HCS: +ve (<100x Avg Cmaxu)
HepaRG spheroids [17]; all endpoints (ATP and HCS), cut-off <25x Avg Cmax
  HepaRG <25x Avg Cmax All: +ve
HepaRG spheroids [17]; all endpoints, Cmax max used
  HepaRG Cmax max All: +ve
HepaRG spheroids [17]; all endpoints, Cmax min used
  HepaRG Cmax min All: +ve
HepaRG spheroids [17]; all endpoints, cut-off <10 uM
  HepaRG <10 uM All: +ve (<10 uM)
HepaRG spheroids [17]; all endpoints, cut-off <100x Avg Cmaxu
  HepaRG <100x Avg Cmaxu All: +ve (<100x Avg Cmaxu)
HepaRG spheroids [17]; read-out: ATP endpoint AC50
  AC50: 8.42 µM
HepaRG spheroids [17]; read-out: ATP endpoint MEC
  minimal effective concentration: 7.27 µM
HepaRG spheroids [17]; read-out: HCS endpoint AC50
  AC50: 15.4 µM
HepaRG spheroids [17]; read-out: HCS endpoint MEC
  minimal effective concentration: 0.713 µM
[9]
  in vitro data EC2<=1x Cmax: +VE
  in vitro data EC20<=2uM: -VE
hLiMTs [18]; read-out: ATP endpoint AC50
  AC50: 9.09 µM
hLiMTs [18]; read-out: ATP endpoint MEC
  minimal effective concentration: 6.84 µM
hLiMTs [18]; read-out: HCS endpoint AC50
  AC50: 12.4 µM
hLiMTs [18]; read-out: HCS endpoint MEC
  minimal effective concentration: 5.88 µM
hLiMTs [18]; hLiMTs, ATP endpoint, cut-off <25x Avg Cmax
  hLiMTs <25x Avg Cmax ATP: +ve
hLiMTs [18]; hLiMTs, ATP endpoint, cut-off <100x Avg Cmaxu
  hLiMTs <100x Avg Cmaxu ATP: +ve (<100x Avg Cmaxu)
hLiMTs [18]; hLiMTs, HCS endpoints, cut-off <25x Avg Cmax
  hLiMTs <25x Avg Cmax HCS: +ve
hLiMTs [18]; hLiMTs, HCS endpoints, cut-off <100x Avg Cmaxu
  hLiMTs <100x Avg Cmaxu HCS: +ve (<100x Avg Cmaxu)
hLiMTs [18]; hLiMTs, all endpoints (ATP and HCS), cut-off <25x Avg Cmax
  hLiMTs <25x Avg Cmax All: +ve
hLiMTs [18]; hLiMTs, all endpoints, Cmax max used
  hLiMTs Cmax max All: +ve
hLiMTs [18]; hLiMTs, all endpoints, Cmax min used
  hLiMTs Cmax min All: +ve
hLiMTs [18]; hLiMTs, all endpoints, cut-off <10 uM
  hLiMTs <10 uM All: +ve (<10 uM)
hLiMTs [18]; hLiMTs, all endpoints, cut-off <100x Avg Cmaxu
  hLiMTs <100x Avg Cmaxu All: +ve (<100x Avg Cmaxu)
